# Reference: US9296749B2, “Crystalline cis-(E)-4-(3-fluorophenyl)-2′,3′,4′,9′-tetrahydro-N,N-dimethyl-2′-(1-oxo-3-phenyl-2-propenyl)-spiro[cyclohexane-1,1′[1H]” (priority 2013, dated 2016)
# Experiments:
# Format in all cases: physicochemical
# [1] = Chemical stability of crystalline forms, open-vial storage (content by HPLC, crystalline form by XRPD)
# Procedure: Samples of compound 1 in different crystalline forms were stored in open vials under controlled conditions at different temperatures and rel. humidities for 28 days. Prior to storage and after 14 and 28 days the content of compound (1) in the sample was determined via HPLC and the crystalline form was measured via XRPD.
# [2] = Chemical stability in pharmaceutical compositions (excipient mixtures with 10% compound (1)); details: listed as B
# Procedure: To test the chemical stability, i.e. compatibility of different crystalline forms of compound (1), solid multi component mixtures were prepared comprising well established excipients used for solid oral dosage form and having different functions therein. The single components of each mixture were exactly weighed and intensively triturated using a mortar and a pestle.
# 10 g of the final mixtures were separately filled into glass vials (open or closed) and stored under the conditions outlined below in table 13. Samples were taken and analyzed initially and after 1, 2 and 3 months with respect to the content of compound (1) within the mixtures.
# [3] = Dynamic vapor sorption (DVS), hygroscopicity
# Procedure: Crystalline forms were characterized by dynamic vapor sorption (DVS) using a Porotec DVS 1000 or a SMS DVS Intrinsic water vapor sorption analyzer. For the DVS analysis, a step width of 10% r.h. was applied allowing the samples to equilibrate and reach weight constancy (±0.002%) for at least 10 min on each step. All measurements were performed according to the following program: 50% r.h.→90% r.h., 90→0% r.h., 0%→90% r.h., 90%→50% r.h. A cycle with increasing humidity is also known as a sorption cycle, a cycle with decreasing humidity is also known as a desorption cycle. The details of the respective DVS measurements are shown below in table 51 and discussed further below.
# The hygroscopicity of the respective crystalline forms determined via the DVS measurements was classified according to the ranges for mass increase defined in the European Pharmacopoeia: very hygroscopic (vh): increase of the mass ≧15%; hygroscopic (h): increase of the mass is less than 15% and equal or greater than 2%; slightly hygroscopic (sh): increase of the mass is less than 2% and equal or greater than 0.2%; not hygroscopic (nh): increase of the mass is less than 0.2%; deliquescent (d): sufficient water is absorbed to form a liquid.
# [4] = Stability of crystalline form B on drying at reduced pressure; details: dried at 50±2° C., about 7 mBar, 72 hours
# Procedure: The samples were let to cool to room temperature under ambient conditions before they were analyzed.
# [5] = Storage of crystalline form C, X-ray diffraction; details: stored for up to 4 months
structure (smiles),measurement,setting,value
"CN(C)[C@]1(c2cccc(F)c2)CC[C@]2(CC1)c1[nH]c3ccccc3c1CCN2C(=O)/C=C/c1ccccc1 [crystalline form B, cis-(E)-4-(3-Fluorophenyl)-2′,3′,4′,9′-tetrahydro-N,N-dimethyl-2′-(1-oxo-3-phenyl-2-propenyl)-spiro[cyclohexane-1,1′[1H]-pyrido[3,4-b]indol]-4-amine]",Content cmpd (1),"[1]; 40° C., 75% r.H., storage 0 d, listed as B",84.85%
same,Content cmpd (1),"[1]; 40° C., 75% r.H., storage 14 d, listed as B",84.21%
same,Content cmpd (1),"[1]; 40° C., 75% r.H., storage 28 d, listed as B",83.74%
same,Content cmpd (1),"[1]; 50° C., storage 0 d, listed as B",84.85%
same,Content cmpd (1),"[1]; 50° C., storage 14 d, listed as B",82.63%
same,Content cmpd (1),"[1]; 50° C., storage 28 d, listed as B",81.26%
same,content of compound (1) within the mixture,"[2]; Lactose monohydrate, PVP25, Crospovidone, Talcum, 40° C., 75% rel. hum., 0 month",99.57
same,content of compound (1) within the mixture,"[2]; Lactose monohydrate, PVP25, Crospovidone, Talcum, 40° C., 75% rel. hum., 1 month",99.22
same,content of compound (1) within the mixture,"[2]; Lactose monohydrate, PVP25, Crospovidone, Talcum, 40° C., 75% rel. hum., 2 months",99.05
same,content of compound (1) within the mixture,"[2]; Lactose monohydrate, PVP25, Crospovidone, Talcum, 40° C., 75% rel. hum., 3 months",96.87
same,content of compound (1) within the mixture,"[2]; Lactose monohydrate, PVP25, Crospovidone, Talcum, 50° C. dry, 0 month",99.57
same,content of compound (1) within the mixture,"[2]; Lactose monohydrate, PVP25, Crospovidone, Talcum, 50° C. dry, 1 month",95.82
same,content of compound (1) within the mixture,"[2]; Lactose monohydrate, PVP25, Crospovidone, Talcum, 50° C. dry, 2 months",91.04
same,content of compound (1) within the mixture,"[2]; Lactose monohydrate, PVP25, Crospovidone, Talcum, 50° C. dry, 3 months",85.33
same,content of compound (1) within the mixture,"[2]; Microcrystalline cellulose, HPMC 6 mPas, L-HPC LH21, magnesium stearate, 40° C., 75% rel. hum., 0 month",99.69
same,content of compound (1) within the mixture,"[2]; Microcrystalline cellulose, HPMC 6 mPas, L-HPC LH21, magnesium stearate, 40° C., 75% rel. hum., 1 month",99.53
same,content of compound (1) within the mixture,"[2]; Microcrystalline cellulose, HPMC 6 mPas, L-HPC LH21, magnesium stearate, 40° C., 75% rel. hum., 2 months",98.57
same,content of compound (1) within the mixture,"[2]; Microcrystalline cellulose, HPMC 6 mPas, L-HPC LH21, magnesium stearate, 40° C., 75% rel. hum., 3 months",99.39
same,content of compound (1) within the mixture,"[2]; Microcrystalline cellulose, HPMC 6 mPas, L-HPC LH21, magnesium stearate, 50° C. dry, 0 month",99.75
same,content of compound (1) within the mixture,"[2]; Microcrystalline cellulose, HPMC 6 mPas, L-HPC LH21, magnesium stearate, 50° C. dry, 1 month",95.74
same,content of compound (1) within the mixture,"[2]; Microcrystalline cellulose, HPMC 6 mPas, L-HPC LH21, magnesium stearate, 50° C. dry, 2 months",91.45
same,content of compound (1) within the mixture,"[2]; Microcrystalline cellulose, HPMC 6 mPas, L-HPC LH21, magnesium stearate, 50° C. dry, 3 months",87.34
same,hysteresis,[3]; between 10% to 40% relative humidity,> 0.5%
same,resulting crystalline form,[4],crystalline form B
"CN(C)[C@]1(c2cccc(F)c2)CC[C@]2(CC1)c1[nH]c3ccccc3c1CCN2C(=O)/C=C/c1ccccc1 [crystalline form C, cis-(E)-4-(3-Fluorophenyl)-2′,3′,4′,9′-tetrahydro-N,N-dimethyl-2′-(1-oxo-3-phenyl-2-propenyl)-spiro[cyclohexane-1,1′[1H]-pyrido[3,4-b]indol]-4-amine]",Content cmpd (1),"[1]; 40° C., 75% r.H., storage 0 d, listed as C",99.67%
same,Content cmpd (1),"[1]; 40° C., 75% r.H., storage 14 d, listed as C",99.68%
same,Content cmpd (1),"[1]; 40° C., 75% r.H., storage 28 d, listed as C",99.44%
same,Content cmpd (1),"[1]; 50° C., storage 0 d, listed as C",99.67%
same,Content cmpd (1),"[1]; 50° C., storage 14 d, listed as C",99.57%
same,Content cmpd (1),"[1]; 50° C., storage 28 d, listed as C",99.20%
same,weight loss,[3]; desorption cycle from 90 to 0% r.h.,about 6.6%
same,change in mass,[3]; sorption cycle from 50% to 90% relative humidity,no major change in mass
same,weight gain at 90%,[3]; subsequent sorption cycle,about 2.8%
same,conversion on storage,[5],converted to Polymorph I in three to four months
